Data as given in patent US20260191863A1, “PYRROLOPYRIMIDINE COMPOSITIONS FOR TREATMENT OF ITK MEDIATED CONDITIONS” (ACLARIS THERAPEUTICS, INC., priority 2022, published 2026).
Where “and” joins values, the source holds several entries; their conditions need not be identical. Identical values can stand only once. Entries after “also recorded” stand apart in the source; their conditions may differ. Like-named read-outs stand apart in the source and are kept apart here.

What was measured:
ITK (IL2 mRNA) = assay: SAD ex vivo PD: αCD3/αCD28 stimulated IL2 mRNA production; format: in vivo; conditions: Homo sapiens
Text: (§1) Secondary Endpoints—Compound I plasma concentrations. Mean change from baseline in ex vivo stimulated pSTAT5 and pSTAT1 (signal transducer and activator of transcription); and in ex vivo stimulated IFNγ mRNA (interferon gamma messenger ribonucleic acid).
(§2) Summary of SAD data: FIGS. 4-8 and 9-13 show the SAD dose response, SAD exposure response, and SAD calculated response at Cmax by dose respectively for ITK (IL2 mRNA), ITK (IFNγ mRNA), JAK3 (pSTAT5, lymph), JAK3 (pSTAT5, CD3′ T), and ITK & JAK (IFNγ protein). Clinical and pre-clinical IC50 data for ITK (IL2 mRNA), ITK (IFNγ mRNA), JAK3 (pSTAT5, lymph), JAK3 (pSTAT5, CD3^+ T), and ITK & JAK (IFNγ protein) from the SAD study is shown in table 4.

JAK3 (pSTAT5, lymph) [1] = assay: SAD ex vivo PD: IL2 stimulated pSTAT5 in lymphocytes; conditions: Homo sapiens, Lymphocyte; SAD study; read-out: Clinical EC50
Text: as §1, §2

JAK3 (pSTAT5, CD3+ T) [2] = assay: SAD ex vivo PD: IL2 stimulated pSTAT5 in CD3+ T cells; conditions: Homo sapiens, T-cell; SAD study; read-out: Clinical EC50
Text: as §1, §2

JAK3 (pSTAT5, lymph) [3] = assay: Pre-clinical human whole blood IL-2/pSTAT5 (20 min), lymphocytes; format: cell-based; conditions: for EC50: Homo sapiens, Lymphocyte
JAK3 (pSTAT5, CD3+ T) [4] = assay: Pre-clinical IL2 stimulated pSTAT5 in CD3+ T cells; format: cell-based; conditions: Homo sapiens, T-cell
[5] = system: αCD3 & IL15 stimulated IFNγ protein; assay: MAD ex vivo PD: αCD3 & IL15 stimulated IFNγ protein; format: in vivo, human
Text: (§3) Exploratory Endpoints—Mean change from baseline in cellular, extracellular (secreted), and/or message markers of inflammation.
EC50 and IC50 data for αCD3 & αCD28 stimulated IL2mRNA, IL15 stimulated IFNγ protein, and αCD3 & IL15 stimulated IFNγ protein is shown in table 9.

[6] = 13 week toxicology and toxicokinetic study in cynomolgus monkeys; format: in vivo, cynomolgus monkey; conditions: for AUC(0-t) / Cmax: in vivo
Text: Purpose: Evaluation of toxicity and toxicokinetic (TK) for Compound I, following daily dosing for 13 weeks.

[7] = system: ankle diameter swelling (Antigen Induced Arthritis); assay: Rat Antigen Induced Arthritis (AIA) model, ankle diameter swelling; format: in vivo; conditions: PO from day 6
Text: The study evaluated the rat AIA kinetics of ankle diameter swelling. Therapeutic model with PO dosing beginning on day 6.

ITK = target: T1, ITK (Homo sapiens, UniProt Q08881); assay: Cell IC50 ITK (Jurkat/pPLCγ1); format: cell-based
T1 construct: (Jurkat/pPLCγ1); endogenous in cells; host or cells: Jurkat
T1 sequence (Q08881 1-620): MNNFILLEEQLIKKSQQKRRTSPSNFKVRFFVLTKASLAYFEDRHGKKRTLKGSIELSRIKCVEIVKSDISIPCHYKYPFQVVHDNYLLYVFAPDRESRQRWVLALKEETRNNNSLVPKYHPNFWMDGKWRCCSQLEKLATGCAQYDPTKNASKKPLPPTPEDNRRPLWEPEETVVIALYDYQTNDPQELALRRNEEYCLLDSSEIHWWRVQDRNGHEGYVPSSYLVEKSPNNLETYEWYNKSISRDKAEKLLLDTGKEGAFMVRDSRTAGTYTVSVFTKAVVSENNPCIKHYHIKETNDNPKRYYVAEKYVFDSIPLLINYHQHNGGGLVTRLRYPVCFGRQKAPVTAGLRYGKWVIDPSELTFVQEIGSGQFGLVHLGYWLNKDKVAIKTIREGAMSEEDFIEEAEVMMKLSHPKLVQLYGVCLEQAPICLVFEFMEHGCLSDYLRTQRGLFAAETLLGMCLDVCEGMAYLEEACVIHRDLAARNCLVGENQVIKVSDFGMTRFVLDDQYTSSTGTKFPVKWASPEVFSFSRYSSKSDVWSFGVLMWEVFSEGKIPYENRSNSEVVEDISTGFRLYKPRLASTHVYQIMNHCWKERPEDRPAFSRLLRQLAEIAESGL

JAK2 = target: T2, JAK2 (Homo sapiens, UniProt O60674); assay: Cell IC50 JAK2; format: cell-based
T2 construct: endogenous in cells
T2 sequence (O60674 whole entry): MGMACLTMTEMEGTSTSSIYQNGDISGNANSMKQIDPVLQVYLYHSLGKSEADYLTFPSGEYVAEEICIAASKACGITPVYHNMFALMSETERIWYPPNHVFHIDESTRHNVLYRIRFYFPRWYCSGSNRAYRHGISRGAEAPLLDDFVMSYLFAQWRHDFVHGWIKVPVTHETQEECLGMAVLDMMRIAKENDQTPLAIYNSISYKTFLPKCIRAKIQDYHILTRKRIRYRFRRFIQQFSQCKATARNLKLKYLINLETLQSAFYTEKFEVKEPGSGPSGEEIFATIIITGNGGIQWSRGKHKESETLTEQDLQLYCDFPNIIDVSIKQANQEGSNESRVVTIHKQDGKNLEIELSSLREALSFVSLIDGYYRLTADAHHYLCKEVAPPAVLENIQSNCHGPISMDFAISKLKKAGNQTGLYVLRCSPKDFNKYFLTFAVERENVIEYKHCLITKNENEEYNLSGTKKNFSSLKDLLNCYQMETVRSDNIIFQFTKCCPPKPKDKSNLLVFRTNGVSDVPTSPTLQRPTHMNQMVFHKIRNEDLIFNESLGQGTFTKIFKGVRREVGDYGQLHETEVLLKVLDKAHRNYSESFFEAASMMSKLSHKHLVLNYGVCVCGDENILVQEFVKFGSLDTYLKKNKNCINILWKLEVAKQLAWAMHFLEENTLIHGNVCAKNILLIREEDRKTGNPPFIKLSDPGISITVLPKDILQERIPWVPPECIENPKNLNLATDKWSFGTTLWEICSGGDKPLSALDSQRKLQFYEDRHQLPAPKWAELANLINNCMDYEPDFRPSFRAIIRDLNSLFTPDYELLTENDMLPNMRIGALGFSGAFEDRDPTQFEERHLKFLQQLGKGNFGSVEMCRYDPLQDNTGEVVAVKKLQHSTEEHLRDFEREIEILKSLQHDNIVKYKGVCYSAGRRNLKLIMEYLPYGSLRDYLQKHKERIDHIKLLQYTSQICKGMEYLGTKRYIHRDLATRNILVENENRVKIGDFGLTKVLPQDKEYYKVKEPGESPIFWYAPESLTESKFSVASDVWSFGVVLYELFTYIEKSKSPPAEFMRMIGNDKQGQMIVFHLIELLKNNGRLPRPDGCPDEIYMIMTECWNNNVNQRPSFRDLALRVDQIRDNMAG

[8] = system: colitis (mouse T cell transfer model); assay: Mouse T cell transfer model of inflammatory bowel disease; format: in vivo
Text: The study evaluated Compound I dose dependent ability to inhibit inflammation in the mouse T cell transfer model of inflammatory bowel disease.

ITK and JAK3 [9] = assay: SAD exploratory PD, all biomarker readouts; format: in vivo, human
Method: as §1
Results: Sixty-three subjects completed the SAD study. […] Peak concentrations were reached within 2 hours after dosing.

ITK and JAK3 [10] = assay: MAD exploratory PD, all biomarker readouts; format: in vivo, human
Method: as §3
Results: 57 subjects completed the MAD study. […] Peak concentrations were reached within 2 hours after dosing.

Compound: C=CC(=O)N1C[C@H](Nc2ncnc3[nH]cc([C@H]4CC4(F)F)c23)CC[C@@H]1C [Compound I, 1-((2S,5R)-5-((5-((R)-2,2-difluorocyclopropyl)-7H-pyrrolo[2,3-d]pyrimidin-4-yl)amino)-2-methylpiperidin-1-yl)prop-2-en-1-one]
- EC50 (ITK (IL2 mRNA); SAD study, read-out: Clinical EC50): 15.2 nM
- EC50 (ITK (IL2 mRNA); read-out: SAD EC50): 0.0055 µg/mL and 15.2 nM
- EC50 (JAK3 (pSTAT5, lymph) [1]): 137 nM
- EC50 (JAK3 (pSTAT5, CD3+ T) [2]): 110 nM
- Potency relative to Ritlecitinib, IL-2/pSTAT5 (20 min) (JAK3 (pSTAT5, lymph) [3]): (1.2 fold*)
- EC50 (JAK3 (pSTAT5, lymph) [3]; 20 min, read-out: Human Whole Blood EC50, IL-2/pSTAT5 (20 min)): 136 nM
- EC50 (JAK3 (pSTAT5, lymph) [3]; read-out: Pre-clinical EC50): 136 ± 51.2 nM
- EC50 (JAK3 (pSTAT5, CD3+ T) [4]): 140 ± 49.3 nM
- EC50 ([5]; Homo sapiens, read-out: MAD EC50): 0.0041 µg/mL and 11.4 nM
- EC50 ([5]; human whole blood dual stimulation, read-out: Human Compound I Cp to reach HWB dual stim EC50 (MAD PD data)): ≥ 3.47 ng/mL
- No observed adverse effect level ([6]; cynomolgus monkey, daily dosing 13 weeks): 3 mpk
- AUC(0-t) ([6]; cynomolgus monkey, 3 mg/kg, monkey 3 mpk, Day 1, read-out: AUC0-24): 153 ± 29.1 ng·h/mL
- Cmax ([6]; cynomolgus monkey, 3 mg/kg, monkey 3 mpk, Day 1, read-out: Cmax): 104 ± 48.9 ng/mL
- AUC(0-t) ([6]; cynomolgus monkey, 3 mg/kg, monkey 3 mpk, Day 28, read-out: AUC0-24): 412 ± 191 ng·h/mL
- Cmax ([6]; cynomolgus monkey, 3 mg/kg, monkey 3 mpk, Day 28, read-out: Cmax): 304 ± 156 ng/mL
- AUC(0-t) ([6]; cynomolgus monkey, 3 mg/kg, monkey, NOAEL 3 mpk, read-out: AUC0-24 h at NOAEL): 356 ng·h/mL
- Cmax ([6]; cynomolgus monkey, 3 mg/kg, monkey, NOAEL 3 mpk, read-out: Cmax at NOAEL): 232 ng/mL
- AUC(0-t) ([6]; cynomolgus monkey, 6 mg/kg, monkey 6 mpk, Day 1, read-out: AUC0-24): 692 ± 223 ng·h/mL
- Cmax ([6]; cynomolgus monkey, 6 mg/kg, monkey 6 mpk, Day 1, read-out: Cmax): 401 ± 153 ng/mL
- AUC(0-t) ([6]; cynomolgus monkey, 6 mg/kg, monkey 6 mpk, Day 28, read-out: AUC0-24): 1880 ± 911 ng·h/mL
- Cmax ([6]; cynomolgus monkey, 6 mg/kg, monkey 6 mpk, Day 28, read-out: Cmax): 985 ± 475 ng/mL
- AUC(0-t) ([6]; cynomolgus monkey, 6 mg/kg, monkey 6 mpk, Day 91, read-out: AUC0-24): 1410 ± 6190 ng·h/mL
- Cmax ([6]; cynomolgus monkey, 6 mg/kg, monkey 6 mpk, Day 91, read-out: Cmax): 784 ± 512 ng/mL
- AUC(0-t) ([6]; cynomolgus monkey, 12 mg/kg, monkey 12 mpk, Day 1, read-out: AUC0-24): 2510 ± 1420 ng·h/mL
- Cmax ([6]; cynomolgus monkey, 12 mg/kg, monkey 12 mpk, Day 1, read-out: Cmax): 975 ± 648 ng/mL
- AUC(0-t) ([6]; cynomolgus monkey, 12 mg/kg, monkey 12 mpk, Day 28, read-out: AUC0-24): 6930 ± 3790 ng·h/mL
- Cmax ([6]; cynomolgus monkey, 12 mg/kg, monkey 12 mpk, Day 28, read-out: Cmax): 2160 ± 724 ng/mL
- AUC(0-t) ([6]; cynomolgus monkey, 12 mg/kg, monkey 12 mpk, Day 91, read-out: AUC0-24): 6430 ± 3660 ng·h/mL
- Cmax ([6]; cynomolgus monkey, 12 mg/kg, monkey 12 mpk, Day 91, read-out: Cmax): 1960 ± 677 ng/mL
- Ratio over time (D 91/D 1) AUC ([6]; monkey 3 mpk): 2.4
- Ratio over time (D 91/D 1) Cmax ([6]; monkey 3 mpk): 2.8
- Ratio over time (D 91/D 1) AUC ([6]; monkey 6 mpk): 2.2
- Ratio over time (D 91/D 1) Cmax ([6]; monkey 6 mpk): 2.2
- Ratio over time (D 91/D 1) AUC ([6]; monkey 12 mpk): 2.6
- Ratio over time (D 91/D 1) Cmax ([6]; monkey 12 mpk): 2.5
- Morbidity / un-scheduled sacrifice ([6]; monkey, 12 mpk, 12 mg/kg): morbidity and significant symptoms necessitating un-scheduled sacrifice and dosing holiday
- Effects on body weight (overall), food consumption (overall), clinical pathology in general, anatomic pathology, ophthalmology ([6]; monkey, 13 weeks): No adverse effects observed
- Opportunistic infection in GI tract ([6]; monkey, 13 weeks): dose-dependent opportunistic infection in GI tract
- Adverse effects ([6]; monkey, more significant and persistent in mid/high dose groups): Liquid and non-formed feces associated with dehydration
- Ankle diameter swelling, comparison of regimens ([7]; rat AIA, 5 mpk BID, 15 BID and 30 QD): No significant difference
- BID vs QD dosing efficacy ([7]; rat arthritis model): BID dosing is more effective than QD dosing
- Potency on ITK relative to ritlecitinib (ITK): ~ 100 ×
- Potency relative to Ritlecitinib, ITK (Jurkat/pPLCγ1) (ITK): 81 fold
- T cell receptor blockade, Compound I vs CsA (ITK): equipotent
- IC50 (ITK; Jurkat, pPLCγ1): 8 nM
- Selectivity for ITK (over JAK3) (ITK; cell IC50 ITK vs JAK3): 3 fold
- Cell IC50, JAK2 (JAK2): Inactive
- Colitis [8]: inhibited colitis
- Effect compared with anti-IL12 (P40) [8]: The effect was greater than anti-IL12 (P40)
- Inflammation in proximal and distal colon, and ileum [8]: dose dependently decreased inflammation
- Modulation of all PD biomarker readouts (ITK and JAK3 [9]): dose- and time-dependent modulation
- PD markers of ITK (αCD3/αCD28 induced IL2 and IFNγ mRNA) and JAK3 (IL2 induced pSTAT5) activation (ITK and JAK3 [9]): dose-dependently inhibited
- Inhibition of biomarker readouts (ITK and JAK3 [9]; 2 hours post treatment, doses of 15 mg to 80 mg): Near-complete inhibition
- Inhibition of biomarker readouts, comparison of regimens (ITK and JAK3 [10]; 10 mg TID, 15 mg BID, 30 mg BID doses): inhibited biomarker readouts to a similar extent
- Change of MAD Day 1 EC50 vs Days 7 & 15 EC50 (ITK and JAK3 [10]; MAD): No significant change
- Modulation of all PD biomarker readouts (ITK and JAK3 [10]; MAD): dose- and time-dependent modulation; also recorded: dose and time dependent modulation
- Inhibition of biomarker readouts (ITK and JAK3 [10]; MAD, 15-40 mg BID, across the dosing intervals): 50-90%
- Inhibition of biomarker readouts (ITK and JAK3 [10]; MAD, 2 hours post treatment, doses of 15 mg to 80 mg): Near-complete inhibition
